Data on 2 molecules can be found in US8445502B2, “Pharmaceutical formulations comprising salts of a protein kinase inhibitor and methods of using same” (Astex Pharmaceuticals, Inc., priority 2007, dated 2013).

The conditions of series [1]: rat, in vivo, iv, 10 mg/kg. How it is done:
In the first IV administration study of MP470 free base, six groups of 6 rats were to be exposed to either vehicle alone or MP470 at 10, 20, 40, 80, or 160 mg/kg. Dosing was administered via a tail vein over approximately 30 minutes. Animals were observed immediately and 10 minutes and one hour after dosing, and daily thereafter for 4 additional days. […] Red urine and lethargy were present at 1 hour post dosing, but animals recovered and appeared normal thereafter. […] All other animals were euthanized and necropsied at day 4 appeared normal.

Series [2] in a line: log P by shake-flask octanol/water partitioning. In kind it is physicochemical. The conditions noted are these: aqueous phase citrate buffer pH 2. How it is done: The log P value for MP470 was determined by the traditional shake-flask method with octanol/water partitioning. Citrate buffer at pH 2 was the aqueous phase. The concentration of the solute in the organic phase was analyzed by HPLC analysis of MP470 with respect to a calibration curve ranging from 0.2 to 200 μg/mL MP470. The majority of MP470 was found in the organic phase. The log P value of MP470 was determined to be 2.3.

For series [3], the system named is Rad51 in A549 non-small cell lung cancer cells. The experiment in a line: Rad51 protein level by Western blot in cells. The settings on record: MP470.HCl alone, 24 hrs. Format: cell-based. How it is done:
Rad51 protein levels were also determined in A549 non-small cell lung cancer cells using combinations with DNA damaging agents. Cells were treated for 24 hrs with 6.1 μM (IC30 of carboplatin alone) carboplatin in combination with 0.71 μM or 3.82 μM MP470.HCl. Protein lysates were isolated from treated and non-treated cells, separated by SDS-PAGE, and transferred to nitrocellulose. […] The increase in Rad51 due to carboplatin treatment was reduced by 26% when treated in combination with 0.71 μM MP470.HCl and by 42% with 3.82 μM MP470.HCl

Another series can be described thus: in vivo. The conditions noted are these: dog. How it is done: Two groups of dogs, each consisting of one male and one female, received alternating escalating single doses of 30, 60, 240, 1000, and 2000 mg/kg of the test article. MP470.HCl was administered by capsule. […] No test article related mortalities or clinical signs of toxicity were observed. Test article related effects were limited to emesis following administration of 1000 and 2000 mg/kg doses. Single oral dose NOEL was determined to be 240 mg/kg and the acute oral MTD was 2000 mg/kg (highest dose tested).

For orientation: logP means a log measure of how a compound divides between an organic and an aqueous phase. Read a high logP as higher lipophilicity. For the molecule `S=C(NCc1ccc2c(c1)OCO2)N1CCN(c2ncnc3c2oc2ccccc23)CC1` [MP470, 4-[1]benzofuro[3,2-d]pyrimidin-4-yl-N-(1,3-benzodioxol-5-ylmethyl)piperazine-1-carbothioamide], in series [1], the “mortality at the low dose” value is given as “the third rat died after dosing”. In series [2], this molecule yielded a logP of 2.3.

Consider `Cl.S=C(NCc1ccc2c(c1)OCO2)N1CCN(c2ncnc3c2oc2ccccc23)CC1` [MP470.HCl, 4-[1]benzofuro[3,2-d]pyrimidin-4-yl-N-(1,3-benzodioxol-5-ylmethyl)piperazine-1-carbothioamide hydrochloride], for which the Rad51 expression result in series [3] is “did not alter the expression of Rad51”. Further, the MTD at 24 h in “in vivo” (both sexes, po) was found to be 2000 mg/kg. Also, in the series “in vivo” (both, 24 h), the “Single oral dose NOEL” value is 240 mg/kg.
